Source: ChEMBL document CHEMBL1149602, “Impaired mutagenic activities of MPDP(+) (1-methyl-4-phenyl-2,3-dihydropyridinium) and MPP(+) (1-methyl-4-phenylpyridinium) due to their interactions with methylxanthines” (2007)

Assays:
Assay type in all cases: functional
Vibrio harveyi [1] = assay: Effect on 1-methyl-4-phenyl-2,3-dihydropyridinium-induced mutagenicity in Vibrio harveyi BB7XM assessed as number of neomycin-resistant mutants at 100 uM
Vibrio harveyi [2] = assay: Effect on 1-methyl-4-phenylpyridinium-induced mutagenicity in Vibrio harveyi BB7XM assessed as number of neomycin-resistant mutants at 1000 uM
Vibrio harveyi [3] = assay: Effect on 1-methyl-4-phenyl-2,3-dihydropyridinium-induced mutagenicity in Vibrio harveyi BB7XM assessed as number of neomycin-resistant mutants at 500 uM
Vibrio harveyi [4] = assay: Effect on 1-methyl-4-phenylpyridinium-induced mutagenicity in Vibrio harveyi BB7XM assessed as number of neomycin-resistant mutants at 100 uM
Vibrio harveyi [5] = assay: Effect on 1-methyl-4-phenyl-2,3-dihydropyridinium-induced mutagenicity in Vibrio harveyi BB7XM assessed as number of neomycin-resistant mutants at 1000 uM
Vibrio harveyi [6] = assay: Effect on 1-methyl-4-phenylpyridinium-induced mutagenicity in Vibrio harveyi BB7XM assessed as number of neomycin-resistant mutants at 10 uM
Vibrio harveyi [7] = assay: Effect on 1-methyl-4-phenylpyridinium-induced mutagenicity in Vibrio harveyi BB7XM assessed as number of neomycin-resistant mutants at 500 uM
Vibrio harveyi [8] = assay: Effect on 1-methyl-4-phenyl-2,3-dihydropyridinium-induced mutagenicity in Vibrio harveyi BB7XM assessed as number of neomycin-resistant mutants at 10 uM

Structure (SMILES)	Activity (Vibrio harveyi [1])	Activity (Vibrio harveyi [2])	Activity (Vibrio harveyi [3])	Activity (Vibrio harveyi [4])	Activity (Vibrio harveyi [5])	Activity (Vibrio harveyi [6])	Activity (Vibrio harveyi [7])	Activity (Vibrio harveyi [8])
Cn1c(=O)c2c(ncn2C)n(C)c1=O [CAFFEINE]	70	7	51	50	47	103	31	293
CC(=O)CCCCn1c(=O)c2c(ncn2C)n(C)c1=O [PENTOXIFYLLINE]	143	24	77	78	51	116	52	278
